From US20240350481A1, “USE OF N-MYRISTOYL TRANSFERASE (NMT) INHIBITORS IN THE TREATMENT OF CANCER, AUTOIMMUNE DISORDERS, AND INFLAMMATORY DISORDERS” (PACYLEX PHARMACEUTICALS INC., priority 2020, published 2024)

Assays:
[1] = test system: BL2 and IM9 cells; assay: Calcein viability, PCLX-001 vs dasatinib and ibrutinib; format: cell-based
Protocol: Calcein assay consists of measuring the cell viability ratio (live cells/total cells and expressed as % viability). Cells were stained with the Nuclear-ID Blue/Red cell viability reagent (GFP-certified, Enzo Life Sciences) to identify total cells, and dead cells while live cells were stained with Calcein AM (Life Technologies) according to manufacturer's instructions. Cell count was performed using a Cytation 5 Cell Imaging Multi-Mode Reader (Biotek Instruments, Inc.) and analysed by Biotek Gen5 Data Analysis software (version 2.09).

[2] = Toxicology in DOHH2 xenograft mice; conditions: for Reticulocyte % / Absolute Basophil cells / Absolute Eosinophil cells / Absolute Monocyte cells / Absolute Neutrophil cells / Absolute Lymphocyte cells / WBC / MPV / RBC / Hemoglobin / RDW % / MCH / MCHC / Hematocrit % / MCV / Platelets / Aspartate Transaminase / Bilirubin / Creatine PhosphoKinase / Creatinine: DOHH2 xenograft; for Absolute Basophil cells / Absolute Eosinophil cells: normal [0-0.2]; for Absolute Monocyte cells: normal [0-0.4]; for Absolute Neutrophil cells: normal [0.1-2.4]; for Absolute Lymphocyte cells: normal [0.9-9.3]; for WBC: normal [1.8-10.7]; for MPV: normal [5-20]; for RBC: normal [6.36-9.42]; for Hemoglobin: normal [11-15.1]; for RDW %: normal [12.4-27]; for MCH: normal [14.1-19.3]; for MCHC: normal [30.2-34.2]; for Hematocrit %: normal [35.1-45.4]; for MCV: normal [45.4-60.3]; for Platelets: normal [592-2972]; for Aspartate Transaminase / Bilirubin / Creatine PhosphoKinase / Creatinine: mean ± SEM, n = 3
Protocol: Mice were observed daily for clinical signs of toxicity and effects on body weight. After the last dose, three mice/group were euthanized and necropsied. At euthanasia, blood samples were taken for hematology analyses and to measure AST and CK activities and bilirubin and creatinine concentrations. At necropsy, samples of samples of femur, both kidneys, liver, small intestine, and injection site were taken and fixed.
The dose volume was 10 mL/kg. At the end of the two-to three-week dosing period, mice were euthanized and three/group were necropsied. Mice that died or were euthanized early for humane reasons also were necropsied. In life, mice were monitored regularly and weighed daily, and tumors were measured with digital Vernier calipers (Mitutoyo) every other day. Tumor volume was calculated as length (mm)×width (mm)2/2; length and width were the longest and shortest diameters, respectively. At euthanasia, at the end of the dosing period blood samples were taken for hematology analyses and clinical chemistry analyses that included AST and CK activities and bilirubin and creatinine concentrations (plus ALT activity and BUN concentration in the Jackson Laboratory study). At necropsy, samples of femur, both kidneys, liver, small intestine, and injection site were collected and fixed. These were subsequently processed and examined by light microscopy for histopathologic findings. Also at necropsy, the tumors were removed and divided in two. One piece was fixed in 10% neutral buffered formalin for 24 h at room temperature and embedded in paraffin; the other was snap frozen for RNA and protein analysis. Tumor growth inhibition (TGI) for all xenograft experiments was calculated following the formula:

[3] = test system: patient DLBCL3 derived lymphoma xenograft; assay: DLBCL3 patient-derived xenograft, tumor growth; format: in vivo, mouse; conditions: 20 mg/kg subcutaneous daily, 21 days
Protocol: The dose volume was 10 mL/kg.
TGI (%)=(Vcontrol−Vtreated)/(Vcontrol−Vnitial)*100.
The pleural fluid was collected in cold sterile 20% RPMI 1640 medium and neoplastic cells were isolated with Ficoll-Paque Plus (GE Healthcare) and re-suspended in […] (Life Technologies) with 20% foetal bovine serum (Life Technologies, Carlsbad, CA). […] The cell suspension was injected subcutaneously in the flank of 4-6-week-old NODscid mice. When the tumors reached a maximum of 1000 mm^3, the mice were sacrificed, tumors were harvested, and a necropsy was performed. Xenograft tumors were immediately frozen, fixed in formalin, and stored in 90% foetal bovine serum, and 10% dimethyl sulfoxide or placed in RPMI 1640 medium. This process was repeated to produce subsequent generations of patient-derived xenograft models (P2, P3, P4, . . . ). To evaluate the maintenance of the morphology and main characteristics of the tumor of origin, formalin-fixed, paraffin-embedded tissue sections from patient tumor samples and xenografts of all established patient-derived xenograft models were stained with haematoxylin and eosin. These sections were also immunostained to measure the expression of various markers. A clinical pathologist reviewed all the slides. […]

[4] = test system: EGFP-N-Ras; assay: Palmitoylation of EGFP-N-Ras in COS-7 cells; format: cell-based; conditions: 10 μM
Protocol: The cells pre-treated with inhibitors were then labelled for 4 hrs with 100 μM Alkyne-C16. EGFP-tagged constructs were immunoprecipitated as described and reacted with azido-biotin using click chemistry. Biotinylated-palmitoylated proteins were detected using neutravidin-HRP conjugate and ECL. […] All western blots shown are representative of three independent experiments.

[5] = test system: BL2 cells; assay: Click chemistry, total protein myristoylation; format: cell-based; conditions: 1 hr treatment
Protocol: Protein from the resulting cell lysates were reacted with 100 μM azido-biotin using click chemistry and processed as described in Yap et al.^47 and Perinpanayagam et al.^33

[6] = test system: hematological cancer cell lines; assay: Viability of hematological cancer cell lines in vitro (assay not given); format: cell-based; conditions: most hematological cancer cell lines in vitro
[7] = c2, head missing (per Table 4: PCLX-001 10 mg/kg/day)
[8] = c3, head missing (per Table 4: PCLX-001 20 mg/kg/day)
[9] = c4, head missing (per Table 4: PCLX-001 50 mg/kg/day Interm.)
[10] = c5, head missing (per Table 4: PCLX-001 50 mg/kg/day)

Cc1c(N[S+](=O)([O-])c2c(Cl)cc(-c3ccnc(N4CCNCC4)c3)cc2Cl)c(CC(C)C)nn1C [PCLX-001]
cell death ([1]; BL2 cells, 0.1 and 1.0 μM, 48 hours): less than 25% | viability of treated cells ([1]; at concentrations that are becoming cytotoxic): at least 75% | neutrophil and monocyte counts ([2]; 50 mg/kg daily): lower than normal in all three mice | RBC counts ([2]; 50 mg/kg every other day): lower than normal in all three mice | femoral bone marrow histopathology ([2]; 50 mg/kg groups): no histopathologic findings | Reticulocyte % ([2]; PCLX-001 10 mg/kg/day): 8.08 ± 1.58% | Absolute Basophil cells ([2]; PCLX-001 10 mg/kg/day): 0.01 ± 0 K/ul | Absolute Eosinophil cells ([2]; PCLX-001 10 mg/kg/day): 0.05 ± 0.02 K/ul | Absolute Monocyte cells ([2]; PCLX-001 10 mg/kg/day): 0.52 ± 0.06 K/ul | Absolute Neutrophil cells ([2]; PCLX-001 10 mg/kg/day): 4.89 ± 0.34 K/ul | Absolute Lymphocyte cells ([2]; PCLX-001 10 mg/kg/day): 0.83 ± ? .19 K/ul | WBC ([2]; PCLX-001 10 mg/kg/day): 6.3 ± 0.12 K/ul | MPV ([2]; PCLX-001 10 mg/kg/day): 6.77 ± 0.18 fL | RBC ([2]; PCLX-001 10 mg/kg/day): 9.45 ± 0.1 M/ul | Hemoglobin ([2]; PCLX-001 10 mg/kg/day): 14.13 ± 0.18 g/dL | RDW % ([2]; PCLX-001 10 mg/kg/day): 25.97 ± 0.46% | MCH ([2]; PCLX-001 10 mg/kg/day): 14.93 ± 0.03 pg | MCHC ([2]; PCLX-001 10 mg/kg/day): 32.73 ± 0.07 g/dL | Hematocrit % ([2]; PCLX-001 10 mg/kg/day): 43.2 ± 0.61% | MCV ([2]; PCLX-001 10 mg/kg/day): 45.7 ± 0.2 fL | Platelets ([2]; PCLX-001 10 mg/kg/day): 1490 ± 91.31 K/uL | Reticulocyte % ([2]; PCLX-001 20 mg/kg/day): 7.21 ± 0.49% | Absolute Basophil cells ([2]; PCLX-001 20 mg/kg/day): 0.01 ± 0 K/ul | Absolute Eosinophil cells ([2]; PCLX-001 20 mg/kg/day): 0.02 ± 0.01 K/ul | Absolute Neutrophil cells ([2]; PCLX-001 20 mg/kg/day): 3.94 ± 0.94 K/ul | Absolute Lymphocyte cells ([2]; PCLX-001 20 mg/kg/day): 0.84 ± ? .15 K/ul | WBC ([2]; PCLX-001 20 mg/kg/day): 5.41 ± 1.05 K/ul | MPV ([2]; PCLX-001 20 mg/kg/day): 7.63 ± 0.23 fL | RBC ([2]; PCLX-001 20 mg/kg/day): 9.03 ± 0.32 M/ul | Hemoglobin ([2]; PCLX-001 20 mg/kg/day): 13.97 ± 0.44 g/dL | RDW % ([2]; PCLX-001 20 mg/kg/day): 25.13 ± 0.65% | MCH ([2]; PCLX-001 20 mg/kg/day): 15.43 ± 0.3 pg | MCHC ([2]; PCLX-001 20 mg/kg/day): 33.03 ± 0.22 g/dL | Hematocrit % ([2]; PCLX-001 20 mg/kg/day): 42.33 ± 1.48% | MCV ([2]; PCLX-001 20 mg/kg/day): 46.9 ± 0.65 fL | Platelets ([2]; PCLX-001 20 mg/kg/day): 1234.7 ± 38.49 K/uL | Reticulocyte % ([2]; PCLX-001 50 mg/kg/day): 6.7 ± 0.3% | Reticulocyte % ([2]; PCLX-001 50 mg/kg/day Interm.): 13.28 ± 6.74% | Absolute Basophil cells ([2]; PCLX-001 50 mg/kg/day Interm.): 0 ± 0 K/ul | Absolute Eosinophil cells ([2]; PCLX-001 50 mg/kg/day Interm.): 0.05 ± 0.03 K/ul | Absolute Monocyte cells ([2]; PCLX-001 50 mg/kg/day Interm.): 0.91 ± 0.14 K/ul | Absolute Lymphocyte cells ([2]; PCLX-001 50 mg/kg/day Interm.): 1.51 ± 0.47 K/ul | WBC ([2]; PCLX-001 50 mg/kg/day Interm.): 5.94 ± 1.19 K/ul | MPV ([2]; PCLX-001 50 mg/kg/day Interm.): 7.17 ± 0.09 fL | RBC ([2]; PCLX-001 50 mg/kg/day Interm.): 8.07 ± 0.12 M/ul | Hemoglobin ([2]; PCLX-001 50 mg/kg/day Interm.): 12.6 ± 0.15 g/dL | RDW % ([2]; PCLX-001 50 mg/kg/day Interm.): 27.2 ± 1.82% | MCH ([2]; PCLX-001 50 mg/kg/day Interm.): 15.63 ± 0.12 pg | MCHC ([2]; PCLX-001 50 mg/kg/day Interm.): 31.90 ± 1.01 g/dL | Hematocrit % ([2]; PCLX-001 50 mg/kg/day Interm.): 39.53 ± 0.84% | MCV ([2]; PCLX-001 50 mg/kg/day Interm.): 49.07 ± 1.72 fL | Platelets ([2]; PCLX-001 50 mg/kg/day Interm.): 1673.7 ± 309.81 K/uL | Absolute Basophil cells ([2]; PCLX-001 50 mg/kg/day): 0 ± 0 K/ul | Absolute Eosinophil cells ([2]; PCLX-001 50 mg/kg/day): 0.01 ± 0.01 K/ul | Absolute Monocyte cells ([2]; PCLX-001 50 mg/kg/day): 0.19 ± 0.06 K/ul | Absolute Neutrophil cells ([2]; PCLX-001 50 mg/kg/day): 1.45 ± 0.22 K/ul | Absolute Lymphocyte cells ([2]; PCLX-001 50 mg/kg/day): 0.23 ± 0.06 K/ul | WBC ([2]; PCLX-001 50 mg/kg/day): 1.89 ± 0.31 K/ul | MPV ([2]; PCLX-001 50 mg/kg/day): 7 ± 0.3 fL | RBC ([2]; PCLX-001 50 mg/kg/day): 9.3 ± 0.17 M/ul | Hemoglobin ([2]; PCLX-001 50 mg/kg/day): 14.77 ± 0.23 g/dL | RDW % ([2]; PCLX-001 50 mg/kg/day): 25.8 ± 0.3% | MCH ([2]; PCLX-001 50 mg/kg/day): 15.9 ± 0.1 pg | MCHC ([2]; PCLX-001 50 mg/kg/day): 34.1 ± 0.1 g/dL | Hematocrit % ([2]; PCLX-001 50 mg/kg/day): 43.3 ± 0.7% | MCV ([2]; PCLX-001 50 mg/kg/day): 46.6 ± 0.2 fL | Platelets ([2]; PCLX-001 50 mg/kg/day): 900.7 ± 60.8 K/uL | Aspartate Transaminase [2, 7]: 104.33 ± 27.34 U/L | Bilirubin [2, 7]: 0.1 ± 0 mg/dL | Creatine PhosphoKinase [2, 7]: 81.7 ± 25.1 U/L | Creatinine [2, 7]: 0.3 ± 0.067 mg/dL | Aspartate Transaminase [2, 8]: 132.67 ± 55.29 U/L | Bilirubin [2, 8]: 0.1 ± 0 mg/dL | Creatine PhosphoKinase [2, 8]: 54 ± 14.7 U/L | Creatinine [2, 8]: 0.3 ± 0 mg/dL | Aspartate Transaminase [2, 9]: 125.67 ± 68.18 U/L | Bilirubin [2, 9]: 0.1 ± 0 mg/dL | Creatine PhosphoKinase [2, 9]: 92.3 ± 29.5 U/L | Creatinine [2, 9]: 0.3 ± 0 mg/dL | Aspartate Transaminase [2, 10]: 279.7 ± 34.17 U/L | Bilirubin [2, 10]: 0.1 ± 0 mg/dL | Creatine PhosphoKinase [2, 10]: 266.67 ± 69.9 U/L | Creatinine [2, 10]: 0.2 ± 0 mg/dL | Noteworthy findings after last dose ([2]; Group 2, Low-dose, 10 mg/kg): None | Noteworthy findings after last dose ([2]; Group 4, Mid-dose, 20 mg/kg): None | mortality ([2]; any dose): does not increase mortality | TGI [3]: 66% | palmitoylation of EGFP-N-Ras [4]: does not inhibit | concentration required to decrease myristoylation [5]: ~0.1 µM | IC50 [6]: 0.05 to 0.1 µM
